Experimental data from US10723692B2, “Lipids and lipid nanoparticle formulations for delivery of nucleic acids” (Acuitas Therapeutics, Inc., priority 2014, dated 2020).
Like-named read-outs stand apart in the source and are kept apart here.

Columns and labels:
[1] = tested on: luciferase expression in the liver; test: In vivo luciferase mRNA expression rodent model (LNP, liver luciferase); set-up: species or system C57BL/6 mice; conditions: tail vein, liver 4 hours; for Liver Luc @ 0.3 mg/kg (ng luc/g liver): 0.3 mg mRNA/kg; for Liver Luc @ 1.0 mg/kg (ng luc/g liver): 1.0 mg mRNA/kg
Method: Cationic lipid (MC3), DSPC, cholesterol and PEG-lipid were solubilized in ethanol at a molar ratio of 50:10:38.5:1.5. Lipid nanoparticles (LNP) were prepared at a total lipid to mRNA weight ratio of approximately 10:1 to 30:1. Briefly, the mRNA was diluted to 0.2 mg/mL in 10 to 50 mM citrate buffer, pH 4. Syringe pumps were used to mix the ethanolic lipid solution with the mRNA aqueous solution at a ratio of about 1:5 to 1:3 (vol/vol) with total flow rates above 15 ml/min. The ethanol was then removed and the external buffer replaced with PBS by dialysis. Finally, the lipid nanoparticles were filtered through a 0.2 μm pore sterile filter. Lipid nanoparticle particle size was 70-90 nm diameter as determined by quasi-elastic light scattering using a Nicomp 370 submicron particle sizer (Santa Barbara, Calif.).
Studies were performed in 6-8 week old female C57BL/6 mice (Charles River) according to guidelines established by an institutional animal care committee (ACC) and the Canadian Council on Animal Care (CCAC). Varying doses of mRNA-lipid nanoparticle were systemically administered by tail vein injection and animals euthanized at specific time points (1, 2, 4, 8 and 24 hrs) post-administration. Liver and spleen were collected in pre-weighted tubes, weights determined, immediately snap frozen in liquid nitrogen and stored at −80° C. until processing for analysis.
For liver, approximately 50 mg was dissected for analyses in a 2 mL FastPrep tubes (MP Biomedicals, Solon Ohio). ¼″ ceramic sphere (MP Biomedicals) was added to each tube and 500 μL of Glo Lysis Buffer—GLB (Promega, Madison Wis.) equilibrated to room temperature was added to liver tissue. Liver tissues were homogenized with the FastPrep24 instrument (MP Biomedicals) at 2×6.0 m/s for 15 seconds. Homogenate was incubated at room temperature for 5 minutes prior to a 1:4 dilution in GLB and assessed using SteadyGlo Luciferase assay system (Promega). Specifically, 50 μL of diluted tissue homogenate was reacted with 50 μL of SteadyGlo substrate, shaken for 10 seconds followed by 5 minute incubation and then quantitated using a CentroXS^3 LB 960 luminometer (Berthold Technologies, Germany). The amount of protein assayed was determined by using the BCA protein assay kit (Pierce, Rockford Ill.). Relative luminescence units (RLU) were then normalized to total ug protein assayed. To convert RLU to ng luciferase a standard curve was generated with QuantiLum Recombinant Luciferase (Promega). Based in the data provided in FIG. 1, the four-hour time point was chosen for efficacy evaluation of the lipid formulations (see EXAMPLE 48).
The FLuc mRNA (L-6107) from Trilink Biotechnologies will express a luciferase protein, originally isolated from the firefly, Photinus pyralis. FLuc is commonly used in mammalian cell culture to measure both gene expression and cell viability. It emits bioluminescence in the presence of the substrate, luciferin. This capped and polyadenylated mRNA is fully substituted with 5-methylcytidine and pseudouridine.
The cationic lipids shown in Table 2 have previously been tested with nucleic acids. For comparative purposes, these lipids were also used to formulate lipid nanoparticles containing the FLuc mRNA (L-6107) using an in line mixing method, as described in EXAMPLE 47 and in PCT/US10/22614, which is hereby incorporated by reference in its entirety. Lipid nanoparticles were formulated using the following molar ratio: 50% Cationic lipid/10% distearoylphosphatidylcholine (DSPC)/38.5% Cholesterol/1.5% PEG lipid (“PEG-DMG”, i.e., (1-(monomethoxy-polyethyleneglycol)-2,3-dimyristoylglycerol, with an average PEG molecular weight of 2000). Relative activity was determined by measuring luciferase expression in the liver 4 hours following administration via tail vein injection as described in EXAMPLE 47. The activity was compared at a dose of 0.3 and 1.0 mg mRNA/kg and expressed as ng luciferase/g liver measured 4 hours after administration, as described in EXAMPLE 47. […]

[2] = pKa of formulated cationic lipids in lipid nanoparticles (TNS fluorescence assay); type: physicochemical
Method: As described elsewhere, the pKa of formulated cationic lipids is correlated with the effectiveness of LNPs for delivery of nucleic acids (see Jayaraman et al, Angewandte Chemie, International Edition (2012), 51(34), 8529-8533; Semple et al, Nature Biotechnology 28, 172-176 (2010)). The preferred range of pKa is ˜5 to ˜7. […] Lipid nanoparticles comprising of cationic lipid/DSPC/cholesterol/PEG-lipid (50/10/38.5/1.5 mol %) in PBS at a concentration of 0.4 mM total lipid are prepared using the in-line process as described in EXAMPLE 47. TNS was prepared as a 100 μM stock solution in distilled water. Vesicles were diluted to 24 μM lipid in 2 mL of buffered solutions containing, 10 mM HEPES, 10 mM MES, 10 mM ammonium acetate, 130 mM NaCl, where the pH ranged from 2.5 to 11. An aliquot of the TNS solution was added to give a final concentration of 1 μM and following vortex mixing fluorescence intensity was measured at room temperature in a SLM Aminco Series 2 Luminescence Spectrophotometer using excitation and emission wavelengths of 321 nm and 445 nm. A sigmoidal best fit analysis was applied to the fluorescence data and the pKa was measured as the pH giving rise to half-maximal fluorescence intensity (see FIG. 2).

[3] = tested on: hFIX protein in mouse plasma; test: LNP delivery of human FIX mRNA, hFIX protein in mouse plasma by ELISA; type: in vivo; conditions: for Human Factor IX @ 0.3 mg/kg (ng mL in plasma): 0.3 mg/kg hFIX mRNA LNP; for Human Factor IX @ 0.3 mg/kg (ng mL in plasma) / Human Factor IX @ 1.0 mg/kg (ng mL in plasma): ELISA; for Human Factor IX @ 1.0 mg/kg (ng mL in plasma): 1.0 mg/kg hFIX mRNA LNP; for measured levels of hFIX expression (assessment): hFIX mRNA LNPs
Method: The LNPs with cationic lipids shown in Table 7 are formulated with mRNA coding for human FIX (e.g. TriLink Biotechnologies product L-6110) using the following molar ratio of lipids: 50% lipid/10% distearoylphosphatidylcholine (DSPC)/38.5% Cholesterol/1.5% PEG-lipid as described in EXAMPLE 47. Plasma protein is analyzed by ELISA using a commercially available kit (e.g. Abcam ab108831) as per the suppliers instructions. […] The duration of the hFIX at these levels is ˜15 hours or longer.

[4] = tested on: cherry red (CR) red fluorescent protein expression in liver; test: LNP activity using cherry red (CR) mRNA, liver sections by confocal fluorescence microscopy; type: in vivo, C57BL/6 mice
Method: LNPs using compound 6 are formulated as described in EXAMPLE 47 with mRNA coding for a red fluorescent protein called cherry red (CR, e.g. TriLink Biotechnologies product L-6113). In vivo studies are conducted as described in EXAMPLE 47 and sections of liver tissue are processed and observed by confocal fluorescence microscopy at 4, 6 and 24 hours post administration. Expression levels peaked at around 6 hours and maintained to at least 24 hours.

[5] = Table 3, LNP with 1.5% PEG-DMA (42-6), FLuc mRNA
[6] = Table 5, LNP with 1.5% PEG-lipid (42-6)
[7] = Table 3, in LNP cationic lipid/DSPC/cholesterol/PEG-lipid 50/10/38.5/1.5 mol %, read-out: pKa
[8] = Table 6, LNP with 1.5% PEG-lipid (42-6)

SMILES: CCCCCCCCC(CCCCCC)C(=O)OCCCCCCN(CCCCCCOC(=O)C(CCCCCC)CCCCCCCC)CCN(C)C (stereo not drawn) [Compound 5]
- Liver Luc @ 0.3 mg/kg (ng luc/g liver) [1, 5]: 1571 ± 414 ng luc/g liver
- Liver Luc @ 1.0 mg/kg (ng luc/g liver) [1, 5]: 12900 ± 4083 ng luc/g liver
- Liver Luc @ 0.3 mg/kg (ng luc/g liver) [1, 6]: 1571 ± 414 ng luc/g liver
- Liver Luc @ 1.0 mg/kg (ng luc/g liver) [1, 6]: 12900 ± 4083 ng luc/g liver
- pKa [2, 7]: 6.28
- pKa ([2]; Table 5, in LNP): 6.28
- Human Factor IX @ 0.3 mg/kg (ng mL in plasma) [3]: 1097 ± 357 ng·mL
- Human Factor IX @ 1.0 mg/kg (ng mL in plasma) [3]: 4556 ± 686 ng·mL
- measured levels of hFIX expression (assessment) [3]: clinically relevant

SMILES: CCCCCCCCC(CCCCCC)C(=O)OCCCCCCCCCN(CCCCCCCCCOC(=O)C(CCCCCC)CCCCCCCC)CCN(C)C (stereo not drawn) [Compound 6]
- Liver Luc @ 0.3 mg/kg (ng luc/g liver) [1, 5]: 2015 ± 135 ng luc/g liver
- Liver Luc @ 1.0 mg/kg (ng luc/g liver) [1, 5]: 16006 ± 2487 ng luc/g liver
- Liver Luc @ 0.3 mg/kg (ng luc/g liver) [1, 6]: 2015 ± 135 ng luc/g liver
- Liver Luc @ 1.0 mg/kg (ng luc/g liver) [1, 6]: 16006 ± 2487 ng luc/g liver
- Liver Luc @ 0.3 mg/kg (ng luc/g liver) [1, 8]: 2015 ± 135 ng luc/g liver
- Liver Luc @ 1.0 mg/kg (ng luc/g liver) [1, 8]: 16006 ± 2487 ng luc/g liver
- time of peak expression levels ([4]; liver sections observed at 4, 6 and 24 hours post administration): around 6 hours
- distribution of expression in tissue sections ([4]; liver sections, confocal fluorescence microscopy): homogeneous expression throughout the liver
- expression maintained to ([4]; liver sections, post administration): at least 24 hours
- pKa [2, 7]: 6.12
- pKa ([2]; Table 5, in LNP): 6.12
- pKa ([2]; Table 6, in LNP): 6.12
- Human Factor IX @ 0.3 mg/kg (ng mL in plasma) [3]: 713 ± 148 ng·mL
- Human Factor IX @ 1.0 mg/kg (ng mL in plasma) [3]: 2697 ± 345 ng·mL
- measured levels of hFIX expression (assessment) [3]: clinically relevant

SMILES: CCCCCCCCC(CCCCCC)COC(=O)CCCCCN(CCCCCC(=O)OCC(CCCCCC)CCCCCCCC)CCN(C)CC (stereo not drawn) [Compound 33]
- Liver Luc @ 0.3 mg/kg (ng luc/g liver) [1, 5]: 711 ± 272 ng luc/g liver
- Liver Luc @ 1.0 mg/kg (ng luc/g liver) [1, 5]: 4448 ± 512 ng luc/g liver
- pKa [2, 7]: 6.27

SMILES: CC(C)=CCCC(C)CC(=O)OCCCCCCCCCCCCN(CCCCCCCCCCCCOC(=O)CC(C)CCC=C(C)C)CCN(C)C (stereo not drawn) [Compound 35]
- Liver Luc @ 0.3 mg/kg (ng luc/g liver) [1, 5]: 35 ± 15 ng luc/g liver
- Liver Luc @ 1.0 mg/kg (ng luc/g liver) [1, 5]: 101 ± 69 ng luc/g liver
- pKa [2, 7]: 6.21

SMILES: CCCCCCC(CCCC)C(=O)OCCCCCCCCCN(CCCCCCCCCOC(=O)C(CCCC)CCCCCC)CCN(C)C (stereo not drawn) [Compound 38]
- Liver Luc @ 0.3 mg/kg (ng luc/g liver) [1, 5]: 977 ± 336 ng luc/g liver
- Liver Luc @ 1.0 mg/kg (ng luc/g liver) [1, 5]: 7135 ± 1020 ng luc/g liver
- pKa [2, 7]: 6.24

SMILES: CCCCCCCCCCCCC(CCCCCCCCCC)C(=O)OCCCCCCN(CCCCCCOC(=O)C(CCCCCCCCCC)CCCCCCCCCCCC)CCN(C)C (stereo not drawn) [Compound 39]
- Liver Luc @ 0.3 mg/kg (ng luc/g liver) [1, 5]: 36 ± 13 ng luc/g liver
- Liver Luc @ 1.0 mg/kg (ng luc/g liver) [1, 5]: 326 ± 81 ng luc/g liver
- pKa [2, 7]: 5.82

SMILES: CCCCCCCCCCC(CCCCCCCC)C(=O)OCCCCCCCCCN(CCCCCCCCCOC(=O)C(CCCCCCCC)CCCCCCCCCC)CCN(C)C (stereo not drawn) [Compound 40]
- Liver Luc @ 0.3 mg/kg (ng luc/g liver) [1, 5]: 236 ± 71 ng luc/g liver
- Liver Luc @ 1.0 mg/kg (ng luc/g liver) [1, 5]: 1704 ± 571 ng luc/g liver
- pKa [2, 7]: 6.38

SMILES: CCCCCCCCCCCCC(CCCCCCCCCC)C(=O)OCCCCCCCCCN(CCCCCCCCCOC(=O)C(CCCCCCCCCC)CCCCCCCCCCCC)CCN(C)C (stereo not drawn) [Compound 41]
- Liver Luc @ 0.3 mg/kg (ng luc/g liver) [1, 5]: 63 ± 27 ng luc/g liver
- Liver Luc @ 1.0 mg/kg (ng luc/g liver) [1, 5]: 799 ± 619 ng luc/g liver
- pKa [2, 7]: 5.91

SMILES: CCCCC/C=C\C/C=C\CCCCCCCCC(CCCCCCCC/C=C\C/C=C\CCCCC)OC(=O)CCCN(C)C [MC3, reference compound]
- pKa ([2]; Table 5, in LNP, read-out: pKa): 6.09
- Human Factor IX @ 0.3 mg/kg (ng mL in plasma) [3]: 336 ± 21 ng·mL
- Human Factor IX @ 1.0 mg/kg (ng mL in plasma) [3]: 1154 ± 25 ng·mL
